These results are taken from US5225528A, “Cyclic hexapeptide oxytocin antagonists” (priority 1990, dated 1993).

A word on the IC50: it is the concentration that inhibits the measured activity by half.

Read-outs that look alike come from different tables or passages of the source. Numbered stars: 1 amine (or outer) side, 2 acyl side, 3 side chain; on linkers, the order of the positions; unused ones are H or OH. Square brackets hold non-standard residues; d marks the D form. Peptide text beside a SMILES is read from it. * marks the point of attachment. ξ: configuration not given here. X2 = O=C(OCc1ccccc1)N1CCN([*:1])[C@H](C(=O)[*:2])C1; d1Nal = N[C@H](Cc1cccc2ccccc12)C(=O)O; d2Nal = N[C@H](Cc1ccc2ccccc2c1)C(=O)O; dHis(π-Me) = Cn1cncc1C[C@@H](N)C(=O)O; X12 = O=C([C@@H]1CCCNN1[*:1])[*:2]; Pip(4-aza) = O=C(O)[C@@H]1CNCCN1; X6 = O=C([C@H]1CCCNN1[*:1])[*:2]; dNMeF = CN[C@H](Cc1ccccc1)C(=O)O; dPip(4-aza) = O=C(O)[C@H]1CNCCN1; ξmTyr = NC(Cc1cccc(O)c1)C(=O)O; Pip = O=C(O)[C@@H]1CCCCN1; dPip = O=C(O)[C@H]1CCCCN1; dNMeA = CN[C@H](C)C(=O)O; Boc = CC(C)(C)OC(=O)* Where only a bound is given, the exact number is not on record here.

One experiment addresses T1, AVP-V2 sites (Rattus norvegicus, UniProt Q00788).
T1 construct: male rat liver (AVP-V1 sites) or kidney medulla (AVP-V2 sites); from tissue; host or cells: male rat kidney medulla, crude membranes
Put plainly: [^3 H]AVP binding to crude membrane preparation of male rat kidney medulla (AVP-V2 sites). Here is the method:
(§1) Nonspecific binding (5-10% of the total binding) was determined using 10 μM unlabeled AVP, and the binding reaction was terminated by filtration as described above for the [^3 H]OT binding assay.

The next experiment has as its target T2, uterine OT receptors (Rattus norvegicus, UniProt P70536).
T2 construct: from tissue; host or cells: uterus of DES-treated rats, crude membranes
T2 sequence (P70536 1-388): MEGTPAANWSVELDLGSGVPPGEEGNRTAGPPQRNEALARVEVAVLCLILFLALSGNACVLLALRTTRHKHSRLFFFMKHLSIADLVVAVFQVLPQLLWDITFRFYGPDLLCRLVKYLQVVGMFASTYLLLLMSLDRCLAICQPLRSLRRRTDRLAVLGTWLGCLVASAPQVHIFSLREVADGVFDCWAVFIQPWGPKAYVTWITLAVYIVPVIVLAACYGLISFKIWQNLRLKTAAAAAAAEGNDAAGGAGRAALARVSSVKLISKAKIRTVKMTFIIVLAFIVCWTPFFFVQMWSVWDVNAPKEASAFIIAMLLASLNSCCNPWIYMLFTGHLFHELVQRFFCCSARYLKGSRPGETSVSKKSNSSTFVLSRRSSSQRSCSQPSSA
Put plainly: [^3 H]OT binding to uterine OT receptors, crude membrane preparation of uteri from DES-treated rats. To be noted: for inhibition at 1 µM: 1 h, read-out: [^3 H]OT: percent inhibition of radioligand at the given concentration. Here is the method:
Competition studies were conducted at equilibrium (60 minutes; 22° C.) using 1 nM [^3 H]OT in the following assay buffer: 50 mM Tris-HCl, 5 mM MgCl2, and 0.1% BSA, pH 7.4.

Another experiment addresses T3, AVP-V1 sites (Rattus norvegicus, UniProt P30560).
T3 construct: crude membrane preparation of male rat liver (AVP-V1 sites); from tissue; host or cells: male rat liver, crude membranes
Put plainly: [^3 H]AVP binding to crude membrane preparation of male rat liver (AVP-V1 sites). On the procedure: as §1

[1] abbreviates: rat uterus membranes, 1 nM [^3 H]OT, read-out: Receptor Binding Results IC50 (nM) [^3 H]OT.
The mark [2] stands for this setting: rat kidney medulla membranes, 2 nM [^3 H]AVP, read-out: Receptor Binding Results IC50 (nM) [^3 H]-AVP-V2.
The mark [3] stands for this setting: Receptor Binding Results IC50 (nM) [^3 H]-AVP-V1.
The mark [4] stands for this setting: read-out: Receptor Binding Results IC50 (nM) [^3 H]-AVP-V2.
[5] abbreviates: read-out: Receptor Binding Results IC50 (nM) [^3 H]-AVP-V1.

T1 sequence (Q00788 whole entry): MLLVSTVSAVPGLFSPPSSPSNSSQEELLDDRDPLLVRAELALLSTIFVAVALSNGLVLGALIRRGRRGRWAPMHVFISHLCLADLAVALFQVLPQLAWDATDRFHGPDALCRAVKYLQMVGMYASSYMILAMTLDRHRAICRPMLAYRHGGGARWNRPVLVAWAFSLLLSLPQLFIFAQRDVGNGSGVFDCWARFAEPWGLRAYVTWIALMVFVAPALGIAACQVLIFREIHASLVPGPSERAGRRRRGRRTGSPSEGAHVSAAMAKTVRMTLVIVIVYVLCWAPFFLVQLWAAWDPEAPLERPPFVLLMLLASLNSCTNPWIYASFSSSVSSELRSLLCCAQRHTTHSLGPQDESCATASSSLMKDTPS
T3 sequence (P30560 whole entry): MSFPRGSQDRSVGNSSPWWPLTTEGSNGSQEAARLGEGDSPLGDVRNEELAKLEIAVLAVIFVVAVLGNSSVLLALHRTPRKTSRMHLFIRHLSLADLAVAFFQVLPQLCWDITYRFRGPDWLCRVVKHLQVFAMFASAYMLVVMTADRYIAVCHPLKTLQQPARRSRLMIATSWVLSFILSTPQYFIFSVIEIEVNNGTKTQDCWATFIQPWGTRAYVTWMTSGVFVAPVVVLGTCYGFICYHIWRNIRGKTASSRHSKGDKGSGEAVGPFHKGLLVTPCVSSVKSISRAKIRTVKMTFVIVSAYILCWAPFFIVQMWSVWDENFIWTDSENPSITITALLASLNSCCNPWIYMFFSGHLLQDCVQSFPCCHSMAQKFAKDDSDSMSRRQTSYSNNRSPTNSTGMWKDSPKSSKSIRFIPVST

For `CC[C@H](C)[C@@H]1NC(=O)C(Cc2cn(C)c3ccccc23)NC(=O)[C@@H]2CCCN2C(=O)[C@@H](Cc2c[nH]cn2)NC(=O)[C@@H]2CCCCN2C(=O)[C@H]2CCCCN2C1=O` (single isomer, unassigned) [153 lower Rf], at AVP-V2 sites (0.5 h, @ 10,000 (nM), read-out: [^3 H]-AVP-V2: percent inhibition of radioligand at the given concentration), the inhibition at 10 µM turned out to be 73%.

As to `CC[C@H](C)[C@@H]1NC(=O)C(Cc2c[nH]c3ccc(F)cc23)NC(=O)[C@@H]2CCCN2C(=O)[C@@H](Cc2c[nH]cn2)NC(=O)[C@@H]2CCCCN2C(=O)[C@H]2CCCCN2C1=O` (single isomer, unassigned) [157 higher Rf], the IC50 on uterine OT receptors (setting [1]) was 590 nM; at AVP-V2 sites (setting [2]), over 10000 nM; on AVP-V1 sites (setting [3]), 10000 nM.

With `CC[C@H](C)[C@@H]1NC(=O)C(Cc2c[nH]c3ccc(F)cc23)NC(=O)[C@@H]2CCCN2C(=O)[C@@H](Cc2c[nH]cn2)NC(=O)[C@@H]2CCCCN2C(=O)[C@H]2CCCCN2C1=O` (single isomer, unassigned) [157 lower Rf], the inhibition at 1 µM on uterine OT receptors (@ 1,000 (nM)) came out at 6%. Also, the half-maximal inhibitory concentration (IC50) is 26000 nM at AVP-V2 sites (setting [4]) and 13000 nM at AVP-V1 sites (setting [5]).

As to `CC[C@H](C)[C@@H]1NC(=O)[C@@H](Cc2ccccc2)NC(=O)[C@@H]2CCCN2C(=O)C(Cc2cccnc2)NC(=O)[C@@H]2CCCCN2C(=O)[C@H]2CCCCN2C1=O` (single isomer, unassigned) [Example 10 (isomer 1), Cyclo[D-Phe-L-Ile-D-Pip-L-Pip-D,L-3-PyrAla-L-Pro]], the concentration for half-maximal inhibition (IC50) on uterine OT receptors (setting [1]) was 1000 nM; on AVP-V2 sites (setting [2]), over 10000 nM; on AVP-V1 sites (setting [3]), over 10000 nM.

For the compound `CC[C@H](C)[C@@H]1NC(=O)[C@@H](Cc2ccccc2)NC(=O)[C@@H]2CCCN2C(=O)C(Cc2cccnc2)NC(=O)[C@@H]2CCCCN2C(=O)[C@H]2CCCCN2C1=O` (single isomer, unassigned) [Example 10 (isomer 2), Cyclo[D-Phe-L-Ile-D-Pip-L-Pip-D,L-3-PyrAla-L-Pro]], the IC50 is 1000 nM at uterine OT receptors (setting [1]), 10000 nM on AVP-V2 sites (setting [2]) and over 10000 nM at AVP-V1 sites (setting [3]).

`CC[C@H](C)[C@@H]1NC(=O)[C@@H](C)NC(=O)[C@@H]2CCCN2C(=O)[C@@H](Cc2ccccc2)NC(=O)[C@@H]2CCCCN2C(=O)[C@H]2CCCCN2C1=O` [Example 2, Cylco[D-alanyl-L-isoleucyl-D-pipecolyl-L-pipecolyl-D-phenylalanyl-L-prolyl]] (cyclo(I[dPip][Pip][dF]P[dA])): the concentration for half-maximal inhibition (IC50) at uterine OT receptors (setting [1]), on AVP-V2 sites (setting [2]) and on AVP-V1 sites (setting [3]) was over 10000 nM each time.

Take `CC[C@H](C)[C@@H]1NC(=O)[C@@H](Cc2ccccc2)NC(=O)[C@@H]2CCCN2C(=O)[C@@H](Cc2cnc[nH]2)NC(=O)[C@@H]2CCCCN2C(=O)[C@H]2CCCCN2C1=O` [Example 3] (cyclo(I[dPip][Pip][dH]P[dF])): the IC50 on uterine OT receptors (setting [1]) was determined as 88 nM; on AVP-V2 sites (setting [2]), 19000 nM; on AVP-V1 sites (setting [5]), 7300 nM.

Turning to `CC[C@H](C)[C@@H]1NC(=O)[C@@H](Cc2c[nH]cn2)NC(=O)[C@@H]2CCCN2C(=O)[C@@H](Cc2ccccc2)N(C)C(=O)[C@@H]2CCCCN2C(=O)[C@H]2CCCCN2C1=O` [Example 4, Cyclo[D-histidyl-L-isoleucyl-D-pipecolyl-L-pipecolyl-D-(N^α -methyl)-phenylalanyl-L-prolyl]] (cyclo(I[dPip][Pip][dNMeF]P[dH])), the IC50 at uterine OT receptors (setting [1]), on AVP-V2 sites (setting [2]) and on AVP-V1 sites (setting [3]) was over 10000 nM throughout.

In the case of `CC[C@H](C)[C@@H]1NC(=O)[C@@H](Cc2ccccc2)NC(=O)[C@@H]2CCCN2C(=O)[C@@H](C)N(C)C(=O)[C@@H]2CCCCN2C(=O)[C@H]2CCCCN2C1=O` [Example 5, Cyclo[D-phenyalanyl-L-isoleucyl-D-pipecolyl-L-pipecolyl-D-(N^α methyl)alanyl-L-prolyl]] (cyclo(I[dPip][Pip][dNMeA]P[dF])), the 50% inhibitory concentration (IC50) is 930 nM on uterine OT receptors (Receptor Binding Results IC50 (nM) [^3 H]OT), over 10000 nM at AVP-V2 sites (setting [2]) and over 10000 nM on AVP-V1 sites (setting [3]).

Consider `CC[C@H](C)[C@@H]1NC(=O)[C@@H](Cc2cccc3ccccc23)NC(=O)[C@@H]2CCCN2C(=O)[C@@H](Cc2cnc[nH]2)NC(=O)[C@@H]2CCCCN2C(=O)[C@H]2CCCCN2C1=O` [Example 11, Cyclo[D-a-naphthalalanyl-L-isoleucyl-D-pipecolyl-L-pipecolyl-D-histidyl-L-prolyl]] (cyclo(I[dPip][Pip][dH]P[d1Nal])), for which the half-maximal inhibitory concentration (IC50) at AVP-V2 sites (Receptor Binding Results IC50 (nM) [^3 H]-AVP-V2) and on AVP-V1 sites (setting [3]) was over 1000 nM in each case.

`CC[C@H](C)[C@@H]1NC(=O)[C@@H](Cc2ccccc2)NC(=O)[C@@H]2CCCN2C(=O)[C@@H](Cc2ccccc2)NC(=O)[C@@H]2CCCNN2C(=O)[C@H]2CCCNN2C1=O` [Example 96, c-[L-prolyl-D-phenylalanyl-L-isoleucyl-D-piperazyl-L-piperazyl-D-phenylalanyl]] (cyclo(I[X6][X12][dF]P[dF])): the 50% inhibitory concentration (IC50) on uterine OT receptors (setting [1]) came out at 245 nM; at AVP-V1 sites (setting [5]) it was 2900 nM.

As for `CN1C(=O)[C@@H]2CCCCN2C(=O)[C@H]2CCCCN2C(=O)[C@H](Cc2ccccc2)NC(=O)[C@@H](Cc2c[nH]c3ccccc23)NC(=O)[C@@H]2CCCN2C(=O)[C@H]1Cc1ccccc1` [Example 134, c-[D-Tryptophanyl-L-phenylalanyl-D-pipecolyl-L-pipecolyl-D-(N-methyl)phenylalanyl-prolyl]] (cyclo(F[dPip][Pip][dNMeF]P[dW])), the IC50 at uterine OT receptors (setting [1]) was 110 nM; on AVP-V2 sites (setting [4]), 8000 nM.

`CC[C@H](C)[C@@H]1NC(=O)[C@@H](Cc2ccc3ccccc3c2)NC(=O)[C@@H]2CCCN2C(=O)[C@@H](Cc2ccccc2)N(C)C(=O)[C@H](CCCCN)NC(=O)[C@H]2CCCCN2C1=O` [Example 140, C-[D-2-Napthylalanyl-L-isoleucyl-D-pipecolyl-L-lysyl-D-(N-methyl)phenylalanyl-L-prolyl]] (cyclo([d2Nal]I[dPip]K[dNMeF]P)): at AVP-V2 sites (0.5 h, @ 1,000 (nM), read-out: [^3 H]-AVP-V2: percent inhibition of radioligand at the given concentration), the inhibition at 1 µM was 84%.

Turning to `CC[C@H](C)[C@@H]1NC(=O)C(Cc2cccc(O)c2)NC(=O)[C@@H]2CCCN2C(=O)[C@@H](Cc2ccccc2)N(C)C(=O)[C@H](CCCCNC(=O)OC(C)(C)C)NC(=O)[C@H]2CCCCN2C1=O` (stereo partly drawn) [Example 143, C-[D,L-meta-Tyrosinyl-L-isoleucyl-D-pipecolyl-L-(N-t-butyloxycarbonyl)lysyl-D-(N-methyl)phenylalanyl-L-prolyl]] (cyclo(I[dPip]K(Boc)[dNMeF]P[ξmTyr])), the inhibition at 1 µM at uterine OT receptors (@ 1,000 (nM)) was 68%.

In the case of `CC[C@H](C)[C@@H]1NC(=O)[C@@H](Cc2ccc3ccccc3c2)NC(=O)[C@@H]2CCCN2C(=O)[C@@H](Cc2c[nH]cn2)NC(=O)[C@H]2CNCCN2C(=O)[C@H]2CCCCN2C1=O` [Example 161, c-[D-2-Naphthylalanyl-L-isoleucyl-D-pipecolyl-D-piperazin-2-yl-D-histidyl-L-prolyl]] (cyclo(I[dPip][dPip(4-aza)][dH]P[d2Nal])), at uterine OT receptors (setting [1]), the IC50 was found to be 6.7 nM.

In the case of `CC[C@H](C)[C@@H]1NC(=O)[C@@H](Cc2ccccc2)NC(=O)[C@@H]2CCCN2C(=O)[C@@H](Cc2ccccc2)NC(=O)[C@@H]2CN(C(=O)OCc3ccccc3)CCN2C(=O)[C@H]2CCCN2C1=O` [Example 163, c-[D-Phenylalanyl-L-isoleucinyl-D-prolyl-L-piperazin-2-yl(4-Cbz)-D-phenylalanyl-L-prolyl]] (cyclo([dF]I[dP][X2][dF]P)), on uterine OT receptors (@ 1,000 (nM)), the inhibition at 1 µM was determined as 49%.

Take `CC[C@H](C)[C@@H]1NC(=O)[C@@H](Cc2ccccc2)NC(=O)[C@@H]2CCCN2C(=O)[C@@H](Cc2cncn2C)NC(=O)[C@@H]2CNCCN2C(=O)[C@H]2CCCCN2C1=O` [Example 178, c-[D-Phenylalany-L-isoleucinyl-D-pipecolyl-L-piperazin-2-yl-D-(N^immethyl)histidinyl-L-prolyl]] (cyclo(I[dPip][Pip(4-aza)][dHis(π-Me)]P[dF])): on uterine OT receptors (@ 1,000 (nM)), the inhibition at 1 µM was 77%.

As for “C-[D,L-3-(3-(7-Methyl)indolyl)alanyl-L-isoleucyl-D-pipecolyl-L-pipecolyl-D- histidyl-L-prolyl] [Example 155]”, the “[^3 H]OT: percent inhibition of radioligand at the given concentration” value (shortened to “[^3 H]OT: percent inhibition”) on uterine OT receptors (@ 100 (nM)) came to 48%. Besides, the “[^3 H]-AVP-V2: percent inhibition of radioligand at the given concentration” value on AVP-V2 sites (@ 1,000 (nM)) is 30%.

On to “c-[D,L-3-(3-(1-Methyl)indolyl)alanyl-L-isoleucyl-D-pipecolyl-L-pipecolyl-D- histidyl-L-prolyl] [Example 153]”, for which the “[^3 H]OT: percent inhibition” value at uterine OT receptors (@ 10 (nM)) is given as 48%. In addition, on AVP-V2 sites (@ 1,000 (nM)), the “[^3 H]-AVP-V2: percent inhibition of radioligand at the given concentration” value worked out at 35%.

Turning to “c-[D-Phenylalanyl-L-isoleucinyl-D-pipecolyl-D-piperazin-2-yl(4-Cbz)-L-(BOM)histidyl-L-prolyl] [Example 93]”, the “[^3 H]OT: percent inhibition” value at uterine OT receptors (@ 1,000 (nM)) was 42%.
